This is an account of results in patent US11311533B2, “Opioid receptor antagonist conjugate and use thereof” (SHANGHAI HANMAI BIO-PHARMA CO., LTD., priority 2016, dated 2022).

Where a name gives a salt, the structure may show the parent alone. Read-outs that look alike come from different tables or passages of the source.

For data set [1], the system named is mice. The experiment in a line: Anti-constipation study: antagonizing the antidiarrheal effect of loperamide hydrochloride (castor oil diarrhea). It is filed as in vivo. The protocol: The anti-constipation study experiment was completed by using the test of antagonizing the antidiarrheal effect of loperamide hydrochloride. The specific experiment process was: the mice were divided into groups randomly, eight mice each group, wherein one group was administered with 0.5 mL of castor oil by gavage, one group was administered with 2 mg/kg loperamide hydrochloride and 0.5 mL of castor oil by gavage, and conjugate test groups were respectively administered with Na1021 (300 nmol/kg), Na1029 (300 nmol/kg), Na1033 (300 nmol/kg) and Na1045 (600 nmol/kg) by gavage first, and then with 2 mg/kg loperamide and 0.5 mL castor oil by gavage.
The mice were divided into groups randomly, eight mice each group, wherein one group was administered with 0.5 mL of castor oil by gavage, one group was administered with 2 mg/kg loperamide and 0.5 mL castor oil by gavage, other groups were respectively administered with different doses of conjugate Na1029 first, then with 2 mg/kg loperamide hydrochloride and 0.5 mL castor oil by gavage.

Data set [2] has as its system mice. The experiment in a line: Mouse hot plate analgesia experiment (antagonism of morphine analgesia, blood-brain barrier study). The settings on record: for Average Pain Threshold after Administration (s) Mean ± SD: 60 minutes after administration; for Passage through the blood-brain barrier (concluded from antagonism of the analgesic effect of morphine): mouse hot plate, conjugate subcutaneous after morphine by gavage. The protocol:
Six conjugates Na1021, Na1029, Na1045, Na1037, Na1041, and Na1049 were subjected to mouse hot plate analgesia experiments for four times, respectively. In each experiment, mice (JOINN Laboratories (Suzhou)) were randomly divided into four groups (eight per group): one blank control group, one morphine control group, and two other groups which were administered with morphine by gavage first, and then low dose and high dose of the conjugates were subcutaneously injected respectively. The mice were put on a hot plate (55±0.1) ° C. before administration, and the time was recorded immediately. The duration from the beginning on the hot plate to the first hind paw licking was recorded as the reaction time of heat-pain sensation (i.e., pain threshold, the unit is second (s)). The pain threshold was set as 100% analgesia if there was no hind paw licking in 60 seconds. It was recorded as 60 seconds when the time exceeded 60 seconds to prevent burn of foot. The mice were again put on a (55±0.1) ° C. hot plate 60 minutes after the administration of drug and the reaction time of heat-pain sensation was recorded. […] The value of the pain thresholds before and after administration was compared and the percentage of increase in pain threshold was calculated according to the following formula to determine the effect of drug on antagonizing morphine analgesia. Percentage of increase in pain threshold=[(average heat pain threshold after administration−average pain threshold before administration)/average pain threshold before administration]×100%

The target of data set [3] is T1, OPRM1 (Mμ opioid receptor gene) receptor (Homo sapiens, UniProt P35372). The experiment in a line: cell-based. The settings on record: for inhibition at 10 µM: OPRM1, read-out: Inhibition rate (%) of highest concentration (mean ± standard deviation) (N = 2).
Method: (§1) Cell suspension was inoculated into a 384-well microplate at a density of 15,000 cells per well, and cultured in a 37° C./5% CO2 incubator for at least 18 hours before experiment.
(§2) Before the test, the conjugates to be tested was diluted with HBSS buffer (containing 20 mM HEPES) and prepared as 5× solution with a concentration five times of the test solution. […] The concentration of the corresponding control DMSO is 0.1%.
(§3) The protocol for preparing agonist detection: cells were inoculated into 384-well microplates, 20 μl of cell suspension per well (containing 15,000 cells); the plate was placed in 37° C./5% CO2 incubator to continue the culture; cells were taken out after 18 hours, and dye was added, 20 μl per well; the plate was incubated in 37° C./5% CO2 incubator for 1 hour and equilibrated at room temperature for 15 minutes; and 10 μl of 5× test solution of agonist was added to each well for RFU value detection.
(§4) The protocol for preparing inhibitor detection: cells were inoculated into 384-well microplates, 20 μl of cell suspension per well (containing 15,000 cells); the plate was placed in 37° C./5% CO2 incubator to continue the culture; cells were taken out after 18 hours; for the inhibitor detection, 20 μl of dye was added to the plate, and then 10 μl of prepared conjugate solution was added; the plate was incubated in 37° C./5% CO2 for 1 hour and equilibrate at room temperature for 15 minutes; 12.5 μl of 5× EC80 positive agonist was added for RFU value detection.
(§5) The 384-well microplate containing the conjugate solution (5× test concentration), cell plate and pipette tip box were placed in FLIPR (Molecule Devices), and the agonist detection program was run. The overall detection time of the instrument was 120 seconds. 10 μl of agonist was automatically added to the plate at the 21st second. […] (Molecule Devices), and the inhibitor detection program was run. The overall detection time of the instrument was 120 seconds. 12.5 μl of positive agonist was automatically added to the plate at the 21st second.
For data set [4], the target named is T1, OPRM1 (Mμ opioid receptor gene) receptor.
Method: as §1, §2, §3, §4, §5
[5] abbreviates: Table 10: 300 nmol/kg by gavage + Loperamide Hydrochloride + Castor Oil.
The mark [6] stands for this setting: Table 11: 500 μg/kg + Loperamide Hydrochloride + Castor Oil.

T1 sequence (P35372 whole entry): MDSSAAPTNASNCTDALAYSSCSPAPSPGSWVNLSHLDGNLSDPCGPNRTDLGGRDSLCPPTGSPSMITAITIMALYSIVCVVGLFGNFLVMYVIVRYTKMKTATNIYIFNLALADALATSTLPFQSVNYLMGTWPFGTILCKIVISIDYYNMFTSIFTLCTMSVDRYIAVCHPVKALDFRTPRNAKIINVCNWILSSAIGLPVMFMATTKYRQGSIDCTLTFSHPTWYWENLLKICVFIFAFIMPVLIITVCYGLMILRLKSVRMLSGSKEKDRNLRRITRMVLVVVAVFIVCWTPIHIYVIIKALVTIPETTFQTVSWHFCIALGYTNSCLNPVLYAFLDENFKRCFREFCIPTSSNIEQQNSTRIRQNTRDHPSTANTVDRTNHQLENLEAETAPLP

For `CN(C)C(=O)C(CCN1CCC(O)(c2ccc(Cl)cc2)CC1)(c1ccccc1)c1ccccc1` [Loperamide Hydrochloride, loperamide hydrochloride, reference compound], the “Total Number of Diarrhea Times Six Hours after Administration” value (from here on “Total Number of Diarrhea Times Six Hours”) with mice [1] (Table 10: 2 mg/kg loperamide hydrochloride + 0.5 mL castor oil by gavage, no conjugate) was 10.88 ± 7.14; in the data set with mice [1] (Table 11: 2 mg/kg loperamide + 0.5 mL castor oil by gavage, no conjugate), 5.75 ± 3.69.
One may read the IC50 as the midpoint of a concentration-inhibition curve. In the case of `Oc1ccc2c3c1O[C@H]1[C@@H](OCCOCCOCCOCCOCCOCCOCCOCCO[C@H]4CC[C@@]5(O)[C@H]6Cc7ccc(O)c8c7[C@@]5(CCN6CC5CC5)[C@H]4O8)CC[C@@]4(O)[C@@H](C2)N(CC2CC2)CC[C@]314` [Nal029, PEG8-(6-α-naltrexol)2-ether], the results for the “Average Pain Threshold before Administration (s) Mean ± SD” value in the data set with mice [2] (3.66 μmol/kg + Morphine group) and in the data set on mice [2] (18.28 μmol/kg + Morphine group) were 20.00 ± 5.71 s and 22.13 ± 7.26 s, respectively. Further, the “Percentage of Increase in Pain Threshold” value with mice [2] (3.66 μmol/kg + morphine) was determined as 200.00%; in the data set with mice [2] (18.28 μmol/kg + morphine) it was 155.31%. For the same compound, the entries for the “Average Pain Threshold after Administration (s) Mean ± SD” value in the data set on mice [2] (3.66 μmol/kg subcutaneous + Morphine by gavage) and in the data set with mice [2] (18.28 μmol/kg subcutaneous + Morphine by gavage) were 60.00 ± 0 s and 56.5 ± 9.90 s, respectively. For the same compound, the “Passage through the blood-brain barrier (concluded from antagonism of the analgesic effect of morphine)” value in the data set with mice [2] was “cannot pass through the blood-brain barrier”. In the data set with mice [1] (Example 9, dose-dependent), the “Antagonism of the antidiarrheal effect of loperamide hydrochloride compared with the model control group” value was “significantly antagonize”. For the same compound, the “Total Number of Diarrhea Times Six Hours” value is 20.88 ± 5.82 in the data set with mice [1] (setting [5]); “relatively high” in the data set with mice [1] (Table 10: 300 nmol/kg by gavage + Loperamide Hydrochloride + Castor Oil, listed as Na1029); 5.25 ± 7.42 in the data set with mice [1] (Table 11: 10 μg/kg + Loperamide Hydrochloride + Castor Oil); 6.50 ± 5.88 in the data set with mice [1] (Table 11: 30 μg/kg + Loperamide Hydrochloride + Castor Oil); 12.13 ± 5.67 with mice [1] (Table 11: 100 μg/kg + Loperamide Hydrochloride + Castor Oil); 18.25 ± 3.99 in the data set with mice [1] (setting [6]). Moreover, in the data set on mice [1] (dose-response in mice, Table 11 and FIG. 1), the “EC50 for antagonizing the antidiarrheal effect of loperamide hydrochloride” value is reported as about 0.086 mg/kg. This compound also gave an IC50 in data set [3] of 161 nM. Moreover, the inhibition at 10 µM in data set [3] amounted to 98 ± 3.09%.
For `Oc1ccc2c3c1O[C@H]1[C@@H](OCCOCCOCCOCCOCCOCCOCCOCCOCCOCCO[C@H]4CC[C@@]5(O)[C@H]6Cc7ccc(O)c8c7[C@@]5(CCN6CC5CC5)[C@H]4O8)CC[C@@]4(O)[C@@H](C2)N(CC2CC2)CC[C@]314` [Nal033, PEG10-(6-α-naltrexol)2-ether], in the data set with mice [1] (setting [5]), the “Total Number of Diarrhea Times Six Hours” value came out at 15.25 ± 4.13. Moreover, in data set [3], inhibition was half-maximal at 197 nM (IC50) and the inhibition at 10 µM turned out to be 99.1 ± 1%.
Consider `C=CCN1CCC23c4c5ccc(O)c4OC2C(OCCOCCOCCOCCOCCOCCOC)CCC3(O)C1C5` (stereo not drawn) [Nal046, mPEG6-(6-β-naloxol)-ether], for which, in data set [4] (CHO-K1/Gα15/OPRM1 cells, inhibitor detection against EC80 positive agonist, RFU), the IC50 was 3.84 µM. Moreover, the “Inhibition rate (%) of highest concentration (mean ± standard deviation) (N = 2)” value in data set [4] (highest concentration 10000 nM) was 79.55 ± 5.73%.
As for `C=CCN1CC[C@]23c4c5ccc(O)c4O[C@H]2[C@@H](OCCOCCOCCOCCOCCOCCOCCOCCOC)CC[C@@]3(O)[C@H]1C5` [Nal049, mPEG8-(6-α-naloxol)-ether], the “Average Pain Threshold before Administration (s) Mean ± SD” value in the data set with mice [2] (4 μmol/kg + Morphine group) is reported as 14.00 ± 7.09 s; in the data set with mice [2] (20 μmol/kg + Morphine group), 13.5 ± 5.07 s. For the same compound, the “Percentage of Increase in Pain Threshold” value with mice [2] (4 μmol/kg + morphine) is on record as 125.93%; with mice [2] (20 μmol/kg + morphine) it was 91.70%. Moreover, the “Average Pain Threshold after Administration (s) Mean ± SD” value stood at 31.63 ± 10.04 s with mice [2] (4 μmol/kg subcutaneous + Morphine by gavage) and 25.88 ± 7.64 s with mice [2] (20 μmol/kg subcutaneous + Morphine by gavage). The “Passage through the blood-brain barrier (concluded from antagonism of the analgesic effect of morphine)” value in the data set on mice [2] is reported as “cannot pass through the blood-brain barrier”. The compound further came in with an IC50 in data set [3] of 1050 nM. Further, the inhibition at 10 µM in data set [3] stood at 94.3 ± 5.39%.
`O=C1CC[C@@]2(O)[C@H]3Cc4ccc(O)c5c4[C@@]2(CCN3CC2CC2)[C@H]1O5` [Naltrexone, naltrexone, reference compound]: the “Total Number of Diarrhea Times Six Hours” value with mice [1] (setting [6]) was 14.00 ± 5.76.
